Assay results reported in patent US6420558B1, “Aminopiperidine derivates as integrin αvβ3 antagonists” (Meiji Seika Kaisha, Ltd., priority 1998, dated 2002).

What was measured:
[1] = biological target: T1, integrin αvβ3 (vitronectin receptor purified from the human placenta) (Homo sapiens, UniProt P05106+P06756); experiment: αvβ3 binding assay (vitronectin-vitronectin receptor binding assay); conditions: vitronectin binding to human placenta vitronectin receptor; read-out: integrin αvβ3 antagonistic activity, IC50 value
T1 construct: a vitronectin receptor (protein content: 118 μg/ml) purified from the human placenta; from tissue; host or cells: human placenta
Description: Integrin αvβ3 antagonistic activity was measured for the compounds according to the present invention in a vitronectin-vitronectin receptor binding assay system in accordance with the method of Kouns et al. (W. C. Kouns, D. Kirchhofer, P. Hadvary, A. Edenhofer, T. Weller, G. Pfenninger, H. R. Baumgartner, L. K. Jennings and B. Steiner, Blood, 80, 2539-2547 (1992)).
Specifically, a vitronectin receptor (protein content: 118 μg/ml) purified from the human placenta in accordance with the method of Pytela et al. (R. Pytela, M. D. Pierschbacher, S. Argraves, S. Suzuki, and E. Ruoslahti, Method in Enzymology, 144, 475-489 (1987)) was diluted 50 times with TBS (20 mM Tris-HCl, 150 mM NaCl, 1 mM CaCl2, 1 mM MgCl2, pH 7.4), and distributed and coated on wells (50 μl/well) of a plate (Maxisorp, Nunc, 96 well Immuno Plate). The plate was then allowed to stand at 4° C. for 1 day, washed twice with TBS (200 μl/well), and then subjected to blocking with TBS (150 μl/well) containing 1% bovine serum albumin (SIGMA) at 4° C. overnight. After washing twice with TBS (200 μl/well), 50 μl of vitronectin (CALBIOCHEM) adjusted to 0.2 μg/ml by the addition of TBS (TBS-Tween) containing 0.01% Tween-20 was mixed with 50 μl of each test compound adjusted to each concentration in wells, and a reaction was allowed to proceed at room temperature for 4 hr. After the completion of the reaction, the wells were washed five times with TBS-Tween. A solution prepared by diluting anti-vitronectin rabbit antiserum (CHEMICON) 500 times with TBS-Tween was added as a primary antibody in an amount of 50 μl/well, and a reaction was allowed to proceed at room temperature for 1.5 hr. After washing five times with 200 μl/well of TBS-Tween, a peroxidase (POD)-labeled anti-rabbit IgG antibody solution (CAPPEL) diluted 500 times with TBS-Tween was added as a secondary antibody in an amount of 50 μl/well, and a reaction was allowed to proceed at room temperature for 1.5 hr. After washing five times with TBS-Tween (200 μl/well), ABTS (2,2′-azino-bis(3-ethylbenzthiazoline-6-sulfonic acid), SIGMA) was adjusted to 1 mg/ml by the addition of a ten-fold diluted POD-buffer (ZYMED), and added in an amount of 50 μl/well, and a reaction was allowed to proceed for 5 to 10 min. A 0.1 M citric acid buffer (pH 4.3) containing 0.05% NaN3 was added in an amount of 50 μl/well to stop the reaction, followed by the measurement of the absorbance at 415 nm with a microplate reader (MTP 32, Corona Electric) (reference: 675 nm). The total binding was defined as the absorbance after a reaction using 50 μl of TBS-Tween instead of the test compound, and the non-specific binding (100% inhibition) was defined as the absorbance after a reaction using 50 μl of TBS-Tween containing 2×10^−3 M RGDS. The inhibition was calculated by the following equation: [formula]
IC50 was determined from a primary regression line of the logarithm of each concentration of the test compound and the logarithm of (100−inhibition)/inhibition.

GP IIb/IIIa = GP IIb/IIIa (Homo sapiens, UniProt P05106+P08514); experiment: GP IIb/IIIa antagonistic activity (method of Pharmacological Test 2 in WO 94/21599); format: binding
Description: (§1) GP IIb/IIIa Antagonistic Activity and Human Platelet Aggregation Inhibitory Activity
GP IIb/IIIa antagonistic activity was measured for the compounds according to the present invention. The measurement of the GP IIb/IIIa antagonistic activity was carried out according to the method described in Pharmacological Test 2 in WO 94/21599.

[2] = tested on: human platelet aggregation; experiment: Human platelet aggregation inhibitory activity (method of Pharmacological Test 1 in WO 94/21599); format: cell-based; conditions: human platelets, read-out: inhibition of human platelet aggregation, IC5. value
Description: as §1
Human platelet aggregation inhibitory activity was measured for the compounds according to the present invention. The measurement of the human platelet aggregation activity was carried out according to the method described in Pharmacological Test 1 in WO 94/21599.

Oral absorption in rats = format: in vivo; conditions: data not shown
From the text: Therefore, any of the compounds, wherein R^12 represents an alkyl group or a hydrogen atom, can be used in the treatment of the above diseases.

[3] = tested on: human vascular smooth muscle cells adhering to immobilized human vitronectin; experiment: Inhibitory activity against adhesion of human vascular smooth muscle cells to vitronectin; format: cell-based; conditions: 1.5 h; human vitronectin-coated plate, 90 min
Description: Inhibitory Activity Against Adhesion of Human Vascular Smooth Muscle Cells to Vitronectin
The adhesion of human vascular smooth muscle cells =+to immobilized human vitronectin was measured in accordance with the method of Liaw et al. (Liaw L, Almeida M, Hart C E, Schwartz S M, and Giachelli C M, Circulation Research, 74 (2), 214-224 (1994)).
A Dulbecco's phosphate buffer (Dulbecco's PBS(−), Nissui Pharmaceutical Co., Ltd.) solution of human plasma-derived vitronectin (CALBIOCHEM) adjusted to a concentration of 4 μg/ml was first added to wells (50 μl/well) of a microplate (Maxisorp, Nunc), and a reaction for immobilization was allowed to proceed at 4° C. overnight. After washing twice with 150 μl of Dulbecco's phosphate buffer, a Dulbecco's phosphate buffer containing 10 mg/ml of bovine serum albumin (SIGMA) was added, followed by blocking at 37° C. for one hr. The assay plate was washed twice with 150 μl of Dulbecco's phosphate buffer.
Separately, human vascular smooth muscle cells cultivated at 37° C. under 5% carbon dioxide in a medium for vascular smooth muscle cells (Clonetics) were separated using a Dulbecco's phosphate buffer containing trypsin-EDTA (GIBCO BRL), washed with Dulbecco's phosphate buffer, and then suspended in a Dulbecco's modified Eagle's basal medium (Nissui Pharmaceutical Co., Ltd.) containing 0.1% bovine serum albumin to a concentration of 5×10^5/ml.
Next, 50 μl of a Dulbecco's modified Eagle's basal medium containing 10 mg/ml of bovine serum albumin with a medicament added thereto was added to the wells of the human vitronectin-coated assay microplate, followed by pre-cultivation under 5% carbon dioxide at 37° C. for 10 min. Thereafter, 50 μl of the medium with human vascular smooth muscle cells suspended therein was added thereto, and the plate was thoroughly stirred. A reaction was allowed to proceed under 5% carbon dioxide at 37° C. for 90 min. The reaction solution containing non-adherent cells were then removed, followed by washing three times with Dulbecco's phosphate buffer. For the adhered cells, 100 μl of a Dulbecco's phosphate buffer containing 4% paraformaldehyde (Wako Pure Chemical Industries, Ltd.) was added, and immobilization was allowed to proceed at room temperature for 10 min. Next, 100 μl of a Dulbecco's phosphate buffer containing 0.5% Toluidine Blue (Croma) and 4% paraformaldehyde was added, and staining was allowed to proceed at room temperature for 5 min, followed by thorough washing with distilled water. The inside of the wells was then air-dried, and a 1% aqueous sodium dodecylsulfate solution was then added to perform cytolysis. The absorbance of the microplate thus obtained was measured at 595 nm. […] The inhibition was calculated by the following equation. IC50 was determined from a primary regression line of the logarithm of each concentration of the test compound and the logarithm of (100−inhibition)/inhibition. [formula]

Chain of GP IIb/IIIa (P08514 32-887 limits assumed): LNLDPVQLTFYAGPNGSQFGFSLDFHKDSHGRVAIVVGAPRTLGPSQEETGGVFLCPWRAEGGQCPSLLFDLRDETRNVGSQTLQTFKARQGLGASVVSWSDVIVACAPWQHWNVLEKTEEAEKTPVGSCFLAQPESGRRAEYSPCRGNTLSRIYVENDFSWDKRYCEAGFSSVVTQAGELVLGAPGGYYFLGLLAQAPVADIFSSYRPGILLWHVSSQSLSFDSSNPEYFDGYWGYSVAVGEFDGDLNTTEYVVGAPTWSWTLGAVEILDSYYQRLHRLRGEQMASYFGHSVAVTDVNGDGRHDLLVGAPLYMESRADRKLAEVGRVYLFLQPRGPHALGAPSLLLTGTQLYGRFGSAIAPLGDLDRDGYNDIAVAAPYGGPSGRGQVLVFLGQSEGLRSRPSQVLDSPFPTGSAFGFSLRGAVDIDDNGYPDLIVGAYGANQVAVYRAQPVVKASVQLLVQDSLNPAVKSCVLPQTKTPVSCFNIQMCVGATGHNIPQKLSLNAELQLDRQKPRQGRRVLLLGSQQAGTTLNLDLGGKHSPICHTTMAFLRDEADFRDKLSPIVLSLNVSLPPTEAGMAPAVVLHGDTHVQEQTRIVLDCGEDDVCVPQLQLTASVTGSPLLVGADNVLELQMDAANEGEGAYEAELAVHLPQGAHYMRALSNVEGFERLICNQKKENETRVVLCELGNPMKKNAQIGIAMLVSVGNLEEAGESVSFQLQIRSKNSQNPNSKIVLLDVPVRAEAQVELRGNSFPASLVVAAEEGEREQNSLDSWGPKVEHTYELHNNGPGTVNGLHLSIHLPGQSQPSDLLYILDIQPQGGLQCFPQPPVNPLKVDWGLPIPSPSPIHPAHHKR
Chain of GP IIb/IIIa (P08514 891-1039 limits assumed): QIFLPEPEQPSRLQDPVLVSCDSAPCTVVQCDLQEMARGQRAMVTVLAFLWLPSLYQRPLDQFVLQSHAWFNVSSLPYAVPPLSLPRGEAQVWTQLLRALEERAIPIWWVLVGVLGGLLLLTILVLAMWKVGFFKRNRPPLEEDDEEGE
Chain of GP IIb/IIIa (P05106 27-788): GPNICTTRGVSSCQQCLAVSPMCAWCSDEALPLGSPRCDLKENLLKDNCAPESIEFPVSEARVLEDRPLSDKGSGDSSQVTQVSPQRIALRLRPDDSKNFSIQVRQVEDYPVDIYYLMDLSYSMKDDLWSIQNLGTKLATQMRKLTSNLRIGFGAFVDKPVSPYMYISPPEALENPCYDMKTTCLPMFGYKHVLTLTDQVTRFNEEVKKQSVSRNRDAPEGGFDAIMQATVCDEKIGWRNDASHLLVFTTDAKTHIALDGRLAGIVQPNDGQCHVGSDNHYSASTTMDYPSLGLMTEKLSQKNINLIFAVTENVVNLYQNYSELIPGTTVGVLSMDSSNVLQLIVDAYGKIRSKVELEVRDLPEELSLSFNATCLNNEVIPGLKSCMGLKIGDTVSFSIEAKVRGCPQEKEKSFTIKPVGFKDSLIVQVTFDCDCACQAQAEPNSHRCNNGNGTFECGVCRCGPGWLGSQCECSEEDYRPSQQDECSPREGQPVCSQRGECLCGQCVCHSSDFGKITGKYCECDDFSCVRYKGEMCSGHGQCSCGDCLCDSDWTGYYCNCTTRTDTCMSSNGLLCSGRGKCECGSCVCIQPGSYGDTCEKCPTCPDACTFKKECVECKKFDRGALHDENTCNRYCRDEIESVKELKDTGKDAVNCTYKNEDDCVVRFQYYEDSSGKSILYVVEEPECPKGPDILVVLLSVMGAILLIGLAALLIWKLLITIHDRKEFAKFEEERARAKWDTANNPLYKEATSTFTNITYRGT
T1 sequence (P06756 31-889 limits assumed): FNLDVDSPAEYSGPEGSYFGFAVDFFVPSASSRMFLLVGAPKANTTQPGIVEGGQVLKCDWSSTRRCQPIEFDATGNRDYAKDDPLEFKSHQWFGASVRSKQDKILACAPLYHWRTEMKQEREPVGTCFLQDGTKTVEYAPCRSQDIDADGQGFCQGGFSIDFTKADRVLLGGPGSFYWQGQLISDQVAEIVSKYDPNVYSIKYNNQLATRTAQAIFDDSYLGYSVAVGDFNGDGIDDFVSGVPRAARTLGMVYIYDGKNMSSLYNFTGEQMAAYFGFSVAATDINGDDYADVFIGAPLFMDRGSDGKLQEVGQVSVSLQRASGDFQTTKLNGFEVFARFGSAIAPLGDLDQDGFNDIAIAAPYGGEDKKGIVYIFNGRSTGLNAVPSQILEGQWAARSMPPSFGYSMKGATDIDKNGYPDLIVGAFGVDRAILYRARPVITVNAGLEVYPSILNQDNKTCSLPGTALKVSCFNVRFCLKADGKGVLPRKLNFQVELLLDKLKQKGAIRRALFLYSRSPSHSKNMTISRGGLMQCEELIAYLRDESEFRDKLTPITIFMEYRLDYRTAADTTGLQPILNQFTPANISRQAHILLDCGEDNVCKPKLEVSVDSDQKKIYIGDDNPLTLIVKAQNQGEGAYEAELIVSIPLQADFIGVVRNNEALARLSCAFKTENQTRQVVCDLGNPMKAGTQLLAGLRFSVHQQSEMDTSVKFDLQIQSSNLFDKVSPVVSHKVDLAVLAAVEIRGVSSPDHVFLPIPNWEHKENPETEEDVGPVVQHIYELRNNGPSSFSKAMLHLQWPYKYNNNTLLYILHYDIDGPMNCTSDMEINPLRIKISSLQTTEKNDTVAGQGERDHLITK
T1 sequence (P06756 891-1048 limits assumed): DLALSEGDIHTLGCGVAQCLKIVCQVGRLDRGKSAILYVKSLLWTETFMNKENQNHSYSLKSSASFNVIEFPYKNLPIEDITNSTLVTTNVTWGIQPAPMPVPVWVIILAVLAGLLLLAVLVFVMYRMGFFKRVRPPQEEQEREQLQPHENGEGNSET
T1 sequence (P05106 27-788): as the sequence (P05106 27-788) above

| IC50 [1] [nM] | IC50 (GP IIb/IIIa) [nM] | IC50 [2] [nM] | IC50 [3] [nM] | SMILES | oral absorption (Oral absorption in rats) |
| --- | --- | --- | --- | --- | --- |
| ≤ 1 | ≤ 1 | ≤ 90 | – | O=C(NC[C@H](NS(=O)(=O)c1ccccc1)C(=O)O)c1ccc(N2CCC(NC3=NCCN3)CC2)c(F)c1 [Example 54, (2S)-Benzenesulfonylamino-3-[3-fluoro-4-{4-(4,5-dihydro-1H-imidazol-2-ylamino)piperidin-1-yl}-benzoylamino]propionic acid] | – |
| – | ≤ 1 | ≤ 90 | – | CN(C1=NCCCN1)C1CCN(c2ccc(C(=O)NC[C@H](NS(=O)(=O)c3ccccc3)C(=O)O)cc2)CC1 [Example 45, (2S)-Benzenesulfonylamino-3-[4-[4-[{N-methyl-N-(1,4,5,6-tetrahydropyrimidin-2-yl)}amino]-piperidin-1-yl]benzoylamino]propionic acid] | – |
| ≤ 1 | ≤ 1 | ≤ 90 | – | O=C(NC[C@H](NS(=O)(=O)c1ccccc1)C(=O)O)c1ccc(N2CCC(NC3=NCCCCN3)CC2)cc1 [Example 42, (2S)-Benzenesulfonylamino-3-[4-{4-(4,5,6,7-tetrahydro-1H-[1,3]diazepin-2-ylamino)piperidin-1-yl}-benzoylamino]propionic acid] | – |
| – | – | – | – | O=C(NC[C@H](NS(=O)(=O)c1ccccc1)C(=O)O)c1ccc(N2CCC(Nc3ncccn3)CC2)c(Cl)c1 [Example 59, (2S)-Benzenesulfonylamino-3-[3-chloro-4-{4-(pyrimidin-2-ylamino)piperidin-1-yl}benzoylamino]-propionic acid] | had oral absorption |
| – | ≤ 1 | ≤ 90 | – | O=C(NC[C@H](NS(=O)(=O)c1ccccc1)C(=O)O)c1ccc(N2CCC(NC3=NCCN3)CC2)cc1 [Example 40, (2S)-Benzenesulfonylamino-3-[4-{4-(4.5-dihydro-1H-imidazol-2-ylamino)piperidin-1-yl}benzoyl-amino]propionic acid] | – |
| ≤ 1 | ≤ 1 | ≤ 90 | ≤ 70 | O=C(NC[C@H](NS(=O)(=O)c1ccccc1)C(=O)O)c1ccc(N2CCC(NC3=NCCCN3)CC2)c(Cl)c1 [Example 60, (2S)-Benzenesulfonylamino-3-[3-chloro-4-{4-(1,4,5,6-tetrahydropyrimidin-2-ylamino)piperidin-1-yl}-benzoylamino]propionic acid] | – |
